Data on one molecule can be found in publication PMC10582325 (Frontiers in Pharmacology, 2023).

On the set-up of data set [1]: method as in Xu et al., 2019. As to conditions: ref Xu et al., 2019; cited from earlier work.
Data set [2] deals with T1, CYP2C8 (Homo sapiens, UniProt P10632).
T1 sequence (P10632 1-490): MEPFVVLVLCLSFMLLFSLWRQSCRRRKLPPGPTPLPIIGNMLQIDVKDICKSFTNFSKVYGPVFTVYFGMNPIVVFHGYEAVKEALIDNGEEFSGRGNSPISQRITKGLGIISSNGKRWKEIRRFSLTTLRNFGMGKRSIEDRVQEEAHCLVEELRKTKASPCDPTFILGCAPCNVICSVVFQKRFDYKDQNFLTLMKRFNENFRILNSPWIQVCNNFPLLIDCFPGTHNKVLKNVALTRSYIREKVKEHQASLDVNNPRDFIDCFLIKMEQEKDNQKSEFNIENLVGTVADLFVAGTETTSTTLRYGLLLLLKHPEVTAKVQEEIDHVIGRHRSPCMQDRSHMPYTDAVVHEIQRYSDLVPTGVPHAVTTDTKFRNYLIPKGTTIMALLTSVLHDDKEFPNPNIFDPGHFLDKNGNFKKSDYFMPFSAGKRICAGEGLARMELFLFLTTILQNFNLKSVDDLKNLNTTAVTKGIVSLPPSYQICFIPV
The data set can be described thus: Direct CYP inhibition in human liver microsomes with marker probe substrates. As to conditions: read-out: Inhibition, IC50; HLM, CYP2C8 probe substrate.

Bounds are passed on as bounds.

Usually IC50 stands for the concentration at which inhibition is half-maximal.

With `COc1ncccc1Nc1cc2nc3ccccc3n(-c3ccc(OC(F)(F)F)cc3)c-2cc1=NC1CCC(OC)CC1` (centres unmarked) [TBI-166, Pyrifazimine], in data set [1], the “concentration in liver tissue” value was 32280 ng/mL. Also, the IC50 in data set [2] was > 50 µM.
